Values after ≈ are worked out from the molar mass of the structure shown.
How the values were obtained:
Format in all cases: functional
[1] = system: Meloidogyne incognita; assay: Average percent inhibition of nematode pest Meloidogyne incognita induced root galling of treated sand medium at 125 ppm
[2] = system: Meloidogyne incognita; assay: Average percent inhibition of nematode pest Meloidogyne incognita induced root galling of treated soil medium at 125 ppm
[3] = system: Meloidogyne incognita; assay: Average percent inhibition of nematode pest Meloidogyne incognita induced root galling of treated soil medium at 0.5 ppm
[4] = system: Meloidogyne incognita; assay: Average percent inhibition of nematode pest Meloidogyne incognita induced root galling of treated soil medium at 7.8 ppm
[5] = system: Meloidogyne incognita; assay: Average percent inhibition of nematode pest Meloidogyne incognita induced root galling of treated sand medium at 7.8 ppm
[6] = system: Meloidogyne incognita; assay: Average percent inhibition of nematode pest Meloidogyne incognita induced root galling of treated sand medium at 0.5 ppm
[7] = system: Meloidogyne incognita; assay: Lethal concentration required for inhibition of nematode induced root galling of treated sand medium to that of untreated soil medium

Structure (SMILES) | inhibition at 125 ppm [1] | inhibition at 125 ppm [2] | inhibition at 0.5 ppm [3] | inhibition at 7.8 ppm [4] | inhibition at 7.8 ppm [5] | inhibition at 0.5 ppm [6] | LC50 [7]
C=C1CC1CC(=O)OCCCCCCCCCCCCCCCC (stereo not drawn) | 100% | 100% | 0% | 50% | 100% | 100% | 
CNC(=O)O/N=C/C(C)(C)SC [ALDICARB] |  |  |  |  |  |  | 3.8 µg/mL (≈ 20 µM)
C=C1CC1CCN (stereo not drawn) | 100% | 75% | 0% | 0% | 100% | 25% | 
C=C1CC1CC(=O)O (stereo not drawn) | 100% | 80% | 0% | 15% | 100% | 90% | 
C=C1C(CC(=O)O)C1(F)F (stereo not drawn) |  | 100% | 0% | 0% |  |  | 
C=C1C(CC(=O)OCCCCCCCCCCCCCCCC)C1(F)F (stereo not drawn) |  | 0% | 0% | 0% |  |  | 
C=C1C(CC(=O)OCc2cccc(Oc3ccccc3)c2)C1(F)F (stereo not drawn) |  | 25% | 0% | 0% |  |  | 
CC1CC1CC(=O)O (stereo not drawn) | 100% | 0% | 0% | 0% | 100% | 0% | 
C=C1CC1CCOC(=O)c1ccc(OCC)cc1 (stereo not drawn) | 100% | 100% | 0% | 0% | 100% | 100% | 
C=C1CC1CC(=O)OCc1cccc(Oc2ccccc2)c1 (stereo not drawn) | 100% | 50% | 0% | 0% | 100% | 50% | 
C=C1CC1CC(N)=O (stereo not drawn) | 100% | 100% | 0% | 0% | 100% | 0% | 
C=C1CC1CCSC1=NCCS1 (stereo not drawn) | 100% | 100% | 0% | 25% | 100% | 50% | 

Source: ChEMBL document CHEMBL1130581, “Inhibition of nematode induced root damage by derivatives of methylenecyclopropane acetic acid” (1997)
